Test results from US9914726B2, “2-(2,4-difluorophenyl)-1,1-difluoro-1-(5-substituted-pyridin-2-yl)-3-(1H-tetrazol-1-yl)propan-2-ols and processes for their preparation” (Viamet Pharmaceuticals, Inc., priority 2014, dated 2018).

Key:
[1] = tested on: Mycosphaerella graminicola; anamorph: Septoria tritici (SEPTTR); assay: Fungicidal activity: leaf blotch of wheat (SEPTTR), wheat seedlings sprayed and inoculated; assay type: in vivo; conditions: 50 ppm, wheat plants (variety Yuma); for SEPTTR 1DP (% disease control rating): 1 Day Protectant; for SEPTTR 3DC (% disease control rating): 3 Day Curative
Method: Technical grades of materials shown in Table 1 below were dissolved in acetone, which were then mixed with nine volumes of water containing 110 ppm Triton X-100. The fungicide solutions were applied onto wheat seedlings using an automated booth sprayer to run-off. All sprayed plants were allowed to air dry prior to further handling. All fungicides were evaluated using the aforementioned method for their activity vs. all target diseases. Wheat plants (variety Yuma) were grown from seed in a greenhouse in 50% mineral soil/50% soil-less Metro mix until the first leaf was fully emerged, with 7-10 seedlings per pot. These plants were inoculated with an aqueous spore suspension of Septoria tritici either prior to or after fungicide treatments. After inoculation the plants were kept in 100% relative humidity (one day in a dark dew chamber followed by two to three days in a lighted dew chamber at 20° C.) to permit spores to germinate and infect the leaf. The plants were then transferred to a greenhouse set at 20° C. for disease to develop. When disease symptoms were fully expressed on the 1st leaves of untreated plants, infection levels were assessed on a scale of 0 to 100 percent disease severity. Percent disease control was calculated using the ratio of disease severity on treated plants relative to untreated plants.

[2] = tested on: Puccinia triticina; synonym: Puccinia recondita f. sp. tritici (PUCCRT); assay: Fungicidal activity: wheat brown rust (PUCCRT), wheat seedlings sprayed and inoculated; assay type: in vivo; conditions: 50 ppm, wheat plants (variety Yuma); for PUCCRT 1DC (% disease control rating): 1 Day Curative; for PUCCRT 1DP (% disease control rating): 1 Day Protectant

| SMILES | SEPTTR 1DP (% disease control rating) [1] | SEPTTR 3DC (% disease control rating) [1] | PUCCRT 1DC (% disease control rating) [2] | PUCCRT 1DP (% disease control rating) [2] |
| --- | --- | --- | --- | --- |
| CCOC(=O)c1nnnn1CC(O)(c1ccc(F)cc1F)C(F)(F)c1ccc(Oc2ccc(C#N)cc2)cn1 (stereo not shown) [—CO2Et, ethyl 1-(3-(5-(4-cyanophenoxy)pyridin-2-yl)-2-(2,4-difluorophenyl)-3,3-difluoro-2-hydroxypropyl)-1H-tetrazole-5-carboxylate] | A (80-100) | A (80-100) | A (80-100) | A (80-100) |
| N#Cc1ccc(Oc2ccc(C(F)(F)C(O)(Cn3nnnc3C(=O)c3ccccc3)c3ccc(F)cc3F)nc2)cc1 (stereo not shown) [—C(O)Ph, 4-((6-(3-(5-benzoyl-1H-tetrazol-1-yl)-2-(2,4-difluorophenyl)-1,1-difluoro-2-hydroxypropyl)pyridin-3-yl)oxy)benzonitrile] | C (40-59) | C (40-59) | D (<40) | A (80-100) |
| Cc1ccc(S(=O)(=O)c2nnnn2CC(O)(c2ccc(F)cc2F)C(F)(F)c2ccc(Oc3ccc(C#N)cc3)cn2)cc1 (stereo not shown) [—SO2(4-MePh), 4-((6-(2-(2,4-difluorophenyl)-1,1-difluoro-2-hydroxy-3-(5-tosyl-1H-tetrazol-1-yl)propyl)pyridin-3-yl)oxy)benzonitrile] | C (40-59) | D (<40) | A (80-100) | D (<40) |
| CC(=O)c1nnnn1CC(O)(c1ccc(F)cc1F)C(F)(F)c1ccc(Oc2ccc(C#N)cc2)cn1 (stereo not shown) [—C(O)Me, 4-((6-(3-(5-acetyl-1H-tetrazol-1-yl)-2-(2,4-difluorophenyl)-1,1-difluoro-2-hydroxypropyl)pyridin-3-yl)oxy)benzonitrile] | A (80-100) | A (80-100) | A (80-100) | A (80-100) |
